The results in this text go back to PubChem BioAssay (NCI).

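Results reflect a 48-hour exposure of cells in 96-well plates to compound at five concentrations. GI50: concentration for 50% inhibition of growth. The concentration for full growth arrest is given as TGI.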

Common to all, as to test: NCI tumour cell line growth inhibition, 48 h
In assay [1] the test system is HT29 colon.
Assay [2] deals with NCI-H226 lung.
The subject of assay [3] is HL-60(TB) leukemia.
Assay [4] deals with 786-0 renal.
Assay [5] deals with SR leukemia.
Assay [6] relates to SF-295 CNS.
In assay [7] the test system is SK-MEL-5 melanoma.
In assay [8] the test system is HCT-116 colon.
The subject of assay [9] is DU-145 prostate.
The test system of assay [10] is SK-OV-3 ovarian.

Consider `N=C(N)SCCN1CCCCC1`, for which the TGI is above 100 µM in assay [1]; 47.7 µM in [2]; 46.3 µM in assay [3]; 51.5 µM in assay [4]; 60.1 µM in [5]; above 100 µM in assay [6]. Further, the TGI in assay [7] is above 100 µM; in assay [8] it was above 100 µM; in assay [9], 64.7 µM; in assay [10], above 100 µM.
With `O=S(=O)([O-])[O-].[Fe+2].[OH2+]c1c(Cl)cc(Cl)cc1/C=N/Nc1ccccn1`, the TGI turned out to be 3.6 µM in assay [1]; 4.41 µM in [2]; 2.92 µM in [3]; 1.92 µM in assay [4]; 4.03 µM in assay [5]; 3.45 µM in [6]. For the same compound, the TGI worked out at 15.1 µM in [7], 2.63 µM in [8] and 3.7 µM in assay [10]. In addition, in assay [10], the GI50 was 1.86 µM.
With `C[N+]1(c2ccccc2)C=C(c2ccccc2)SC1=S` (stereo not given), the TGI in assay [1], in assay [2], in assay [3], in [4], in assay [5] and in assay [6] was above 100 µM in each case. Also, the TGI in [7], in assay [8] and in assay [9] was above 100 µM each time.
With `Nc1ccc(S(=O)(=O)NCCS(=O)(=O)O)cc1`, the TGI in [1], in [2], in assay [3], in [4], in [5] and in assay [6] was above 100 µM throughout. In addition, the TGI in assay [7], in assay [8] and in assay [9] was above 100 µM in each case.
Turning to `O=C(/C=C/c1ccc(O)cc1)c1cc(-c2cc(CCC(=O)c3ccc(O)cc3O)ccc2O)c(O)cc1O`, the TGI was 35.8 µM in [1]; above 50 µM in [3]; above 50 µM in [4]; 29.5 µM in assay [5]; above 50 µM in assay [6]; above 50 µM in [7]. Further, the results for the TGI in assay [8], in assay [9] and in [10] were above 50 µM, above 50 µM and 42.6 µM, respectively.
`Cc1ncc(COP(=O)(O)O)c(C)c1O`: the TGI in [1], in assay [2], in assay [3], in assay [4], in assay [5] and in assay [6] was above 100 µM each time. Moreover, the TGI in [7] and in assay [8] was above 100 µM in each case.
Consider `COc1ccc(OC)c([N+](=O)[O-])c1-c1nc2sc(C)c(C)n2c1/C=N/N=C(N)N`, for which the TGI in assay [1] was above 100 µM; in assay [2], above 100 µM; in [3], 64.9 µM; in assay [4], above 100 µM; in assay [5], above 100 µM; in [6], above 100 µM. Besides, the TGI in assay [7], in assay [8] and in [9] was above 100 µM each time.
Regarding `COc1cc(O)c2c(=O)c(OC)c(-c3ccc(OC)c(OC)c3)oc2c1.[Zn+2]`, the GI50 in [1] was 41.8 µM; in assay [5], above 100 µM; in [6] it was 5.57 µM; in assay [7] it was 17.6 µM; in [8] it was 22.6 µM; in assay [9], 24.6 µM. In addition, the TGI in assay [1] was above 100 µM; in [2], above 100 µM; in [3] it was above 100 µM; in [4] it was above 100 µM; in [5], above 100 µM; in assay [6], 35.9 µM. Further, the TGI in assay [7] is above 100 µM; in [8], above 100 µM; in assay [9] it was above 100 µM; in assay [10] it was 47.2 µM.
On to `CCCCCCCCc1ccc(CCC(N)(CO)CO)cc1`, for which the GI50 in assay [1] was 1.76 µM; in assay [2] it was 1.77 µM; in assay [3] it was 1.32 µM; in assay [5], 1.39 µM; in assay [6], 1.98 µM; in assay [7], 1.62 µM. Further, the GI50 in assay [9] is 1.81 µM; in assay [10], 1.61 µM. Besides, the TGI in [1] worked out at 3.31 µM; in [2], 3.42 µM; in assay [3] it was 3.03 µM; in assay [5] it was 4.28 µM; in assay [6] it was 3.93 µM; in [7], 2.98 µM. The TGI in assay [9] is 3.24 µM; in [10], 3.09 µM.
As for `C=C(C[C@@H](O)[C@H](C)NC(=O)OCc1ccccc1)C(=O)OC(C)(C)C`, the TGI in [1], in assay [2], in [3], in assay [5], in assay [6] and in assay [7] was above 100 µM in each case. For the same compound, the TGI in assay [8], in assay [9] and in assay [10] was above 100 µM in each case.
Consider `CCOc1ccc(N=Nc2ccc(-c3ccc(N=Nc4c(O)ccc5cc(S(=O)(=O)O)cc(S(=O)(=O)O)c45)cc3)cc2)cc1`, for which the TGI in assay [1], in [2], in assay [3], in assay [4], in assay [5] and in assay [6] was above 100 µM in each case. The TGI in [7], in assay [8] and in [10] was above 100 µM each time.
`O=C1O/C(=C\C=C\CO)C=C1/C=C/CO`: the TGI in [1] is 88.5 µM; in assay [2], 95.8 µM; in assay [3], 54.7 µM; in assay [4] it was 33.7 µM; in assay [5], 71.4 µM; in assay [6] it was above 100 µM. Further, the TGI in [7] was 46 µM; in assay [8], 29.9 µM; in [9], 50.7 µM; in assay [10], above 100 µM.
With `Cc1cccc(/C=C2/C(=O)Nc3ccccc32)n1`, the TGI was above 100 µM in [1]; 35.9 µM in assay [2]; 39.8 µM in assay [3]; 27.3 µM in [4]; 7.3 µM in assay [5]; 54.4 µM in assay [6]. Moreover, the TGI in assay [7] was 26.3 µM; in assay [8], 26.2 µM; in assay [9], 32.9 µM; in [10] it was 52 µM. The GI50 in assay [2] is 14.6 µM; in assay [5] it was 2.11 µM.
Consider `CC(=O)Oc1cc(/C=C/c2ccc(O)cc2)cc(OC(C)=O)c1`, for which the TGI is 93.1 µM in [1]; 86.9 µM in assay [2]; above 100 µM in assay [3]; above 100 µM in assay [4]; 48.7 µM in assay [5]; above 100 µM in [6]. Besides, the TGI in assay [7], in assay [8], in assay [9] and in assay [10] was above 100 µM each time.
As to `CC(=O)[C@]12OC(=O)C3=C1[C@H](CC[C@@H]3C)[C@@H](C)C[C@H]2C=C(C)C`, the TGI amounted to 13.9 µM in assay [1]; 16 µM in assay [2]; 16 µM in assay [3]; 15.7 µM in assay [4]; 16.8 µM in [5]; 12.8 µM in assay [6]. Also, the TGI was 11.8 µM in [7], 13.4 µM in [8], 15.4 µM in assay [9] and 21.3 µM in assay [10].
With `NC(=S)N/N=C1\CC(c2ccccc2)Nc2ccccc21` (stereo not given), the TGI in assay [1] is 48.5 µM; in [2] it was above 100 µM; in [3], 31.3 µM; in assay [6], above 100 µM; in [7], 50.9 µM; in assay [10], above 100 µM.
On to `CC(=O)c1c(C)cc2cccc(OC3OC(CO)C(O)C(O)C3O)c2c1O` (stereo not given) (tested in a mixture with another compound), for which the TGI in [1], in assay [2], in assay [3], in assay [4], in assay [5] and in [6] was above 100 µM throughout. For the same compound, the TGI in assay [7], in assay [8], in [9] and in assay [10] was above 100 µM throughout.
Turning to `C[N+]1(C)C/C(=C\c2ccc(O)cc2)C(=O)/C(=C/c2ccc(O)cc2)C1`, the TGI in [1], in assay [3], in assay [4], in assay [5], in [6] and in [7] was above 100 µM each time. Further, the TGI in assay [8] and in assay [10] was above 100 µM throughout.
